Laboratory results taken from article PMC6678576, “Spectroscopic Characterisation of the Naphthalene Dioxygenase from Rhodococcus sp. Strain NCIMB12038” (International Journal of Molecular Sciences, 2019).

Molecular target: T1, naphthalene 1,2-dioxygenase (NDO; ISPNAR) from Rhodococcus sp. strain NCIMB12038 (Rhodococcus sp. NCIMB 12038, UniProt Q9X3R9)
T1 construct: gene narAa; native oxygenase component purified from naphthalene-grown Rhodococcus cells; alpha3beta3; Rieske [2Fe-2S] and mononuclear iron; with Naphthalene 1,2-dioxygenase small (beta) subunit
T1 sequence (Q9X3R9 1-470): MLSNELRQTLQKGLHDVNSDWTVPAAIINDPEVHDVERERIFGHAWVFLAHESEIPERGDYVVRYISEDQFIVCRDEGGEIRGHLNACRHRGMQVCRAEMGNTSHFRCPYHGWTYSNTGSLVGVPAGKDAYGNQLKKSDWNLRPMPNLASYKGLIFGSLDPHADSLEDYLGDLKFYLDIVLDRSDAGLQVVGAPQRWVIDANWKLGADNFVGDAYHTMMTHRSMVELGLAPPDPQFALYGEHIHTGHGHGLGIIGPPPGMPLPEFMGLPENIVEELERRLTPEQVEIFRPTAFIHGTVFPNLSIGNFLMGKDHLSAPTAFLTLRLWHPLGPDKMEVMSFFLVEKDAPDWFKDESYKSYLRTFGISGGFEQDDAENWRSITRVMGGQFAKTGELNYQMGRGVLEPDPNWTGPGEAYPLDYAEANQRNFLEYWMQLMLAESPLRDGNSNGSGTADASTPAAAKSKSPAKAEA
T1 sequence (Q7BSK6 1-172 partner): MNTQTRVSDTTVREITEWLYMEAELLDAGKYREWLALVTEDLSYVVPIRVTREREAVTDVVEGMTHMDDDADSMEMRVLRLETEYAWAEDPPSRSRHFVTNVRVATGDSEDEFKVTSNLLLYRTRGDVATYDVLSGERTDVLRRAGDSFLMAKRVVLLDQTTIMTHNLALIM
Assay: EPR ([…] K) and UV-Vis of single turnover and peroxide shunt
Type: binding
Conditions: dithionite-reduced NDO with O2-saturated naphthalene, or H2O2 peroxide shunt; no reductase or ferredoxin; 50 mM Tris-HCl pH 7.8, 10% ethanol, 10% glycerol, 0.5 mM DTT

## c1ccc2ccccc2c1 [naphthalene]
  EPR (20 K) and UV-Vis of single turnover and peroxide shunt: NDO, with reduced Rieske and mononuclear iron centres, is able to react with naphthalene
